According to patent US11021444B2, “Antiviral compounds” (priority 2013, dated 2021):
Where two headings read alike, the source gives them in different places.

Experiments:
recombinant RSV complex = recombinant RSV complex (Human respiratory syncytial virus A, UniProt P28887); assay: RSV Polymerase Inhibition Assay; format: biochemical
Procedure, shortened: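 10 nM recombinant RSV polymerase complex in Tris-HCl pH 7.5, 6 mM MgCl2 with RNA oligonucleotide template and radionucleotides, incubated 2 h at 30 °C with increasing inhibitor concentrations. Reaction stopped with EDTA; radiolabeled RNA product counted by scintillation.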

[1] = Cytotoxicity Determination (CCK-8, without addition of virus); format: cell-based; details: human
Procedure, shortened: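 HEp-2 cells were seeded at 1,500 cells/well one day before compound addition. Compounds were tested without virus in duplicate over 7 points from 100 μM in 1/2 steps, with 1% final DMSO, 5 days at 37 °C, 5% CO2. Viability was read by CCK-8 after 3-4 hours.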

[2] = test system: Respiratory Syncytial Virus (RSV) long strain; assay: microbe, parasite or virus in culture; format: cell-based; details: human respiratory syncytial virus, Tables A and B list compounds by EC50 band
Procedure, shortened: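 HEp-2 cells infected with 100 TCID50 virus per well, compounds in duplicate, 9-point 1/3 dilutions from 100 μM or 1 μM, 1% DMSO. After 5 days at 37 °C, cell viability (CPE protection) read by CCK-8 absorbance at 450 nm, 630 nm background.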

RSV replicon = assay: microbe, parasite or virus in culture; format: cell-based; details: human respiratory syncytial virus, read-out: EC50, the concentration of the drug required for reducing RSV replicon RNA by 50%
[3] = 50% cytotoxicity concentration (CC50)
[4] = HEp-2, 120 h, read-out: 50% effective concentration (EC50), HEp-2 cells infected with RSV long strain, 5 days, CCK-8 readout

Sequence of recombinant RSV complex (P28887 whole entry): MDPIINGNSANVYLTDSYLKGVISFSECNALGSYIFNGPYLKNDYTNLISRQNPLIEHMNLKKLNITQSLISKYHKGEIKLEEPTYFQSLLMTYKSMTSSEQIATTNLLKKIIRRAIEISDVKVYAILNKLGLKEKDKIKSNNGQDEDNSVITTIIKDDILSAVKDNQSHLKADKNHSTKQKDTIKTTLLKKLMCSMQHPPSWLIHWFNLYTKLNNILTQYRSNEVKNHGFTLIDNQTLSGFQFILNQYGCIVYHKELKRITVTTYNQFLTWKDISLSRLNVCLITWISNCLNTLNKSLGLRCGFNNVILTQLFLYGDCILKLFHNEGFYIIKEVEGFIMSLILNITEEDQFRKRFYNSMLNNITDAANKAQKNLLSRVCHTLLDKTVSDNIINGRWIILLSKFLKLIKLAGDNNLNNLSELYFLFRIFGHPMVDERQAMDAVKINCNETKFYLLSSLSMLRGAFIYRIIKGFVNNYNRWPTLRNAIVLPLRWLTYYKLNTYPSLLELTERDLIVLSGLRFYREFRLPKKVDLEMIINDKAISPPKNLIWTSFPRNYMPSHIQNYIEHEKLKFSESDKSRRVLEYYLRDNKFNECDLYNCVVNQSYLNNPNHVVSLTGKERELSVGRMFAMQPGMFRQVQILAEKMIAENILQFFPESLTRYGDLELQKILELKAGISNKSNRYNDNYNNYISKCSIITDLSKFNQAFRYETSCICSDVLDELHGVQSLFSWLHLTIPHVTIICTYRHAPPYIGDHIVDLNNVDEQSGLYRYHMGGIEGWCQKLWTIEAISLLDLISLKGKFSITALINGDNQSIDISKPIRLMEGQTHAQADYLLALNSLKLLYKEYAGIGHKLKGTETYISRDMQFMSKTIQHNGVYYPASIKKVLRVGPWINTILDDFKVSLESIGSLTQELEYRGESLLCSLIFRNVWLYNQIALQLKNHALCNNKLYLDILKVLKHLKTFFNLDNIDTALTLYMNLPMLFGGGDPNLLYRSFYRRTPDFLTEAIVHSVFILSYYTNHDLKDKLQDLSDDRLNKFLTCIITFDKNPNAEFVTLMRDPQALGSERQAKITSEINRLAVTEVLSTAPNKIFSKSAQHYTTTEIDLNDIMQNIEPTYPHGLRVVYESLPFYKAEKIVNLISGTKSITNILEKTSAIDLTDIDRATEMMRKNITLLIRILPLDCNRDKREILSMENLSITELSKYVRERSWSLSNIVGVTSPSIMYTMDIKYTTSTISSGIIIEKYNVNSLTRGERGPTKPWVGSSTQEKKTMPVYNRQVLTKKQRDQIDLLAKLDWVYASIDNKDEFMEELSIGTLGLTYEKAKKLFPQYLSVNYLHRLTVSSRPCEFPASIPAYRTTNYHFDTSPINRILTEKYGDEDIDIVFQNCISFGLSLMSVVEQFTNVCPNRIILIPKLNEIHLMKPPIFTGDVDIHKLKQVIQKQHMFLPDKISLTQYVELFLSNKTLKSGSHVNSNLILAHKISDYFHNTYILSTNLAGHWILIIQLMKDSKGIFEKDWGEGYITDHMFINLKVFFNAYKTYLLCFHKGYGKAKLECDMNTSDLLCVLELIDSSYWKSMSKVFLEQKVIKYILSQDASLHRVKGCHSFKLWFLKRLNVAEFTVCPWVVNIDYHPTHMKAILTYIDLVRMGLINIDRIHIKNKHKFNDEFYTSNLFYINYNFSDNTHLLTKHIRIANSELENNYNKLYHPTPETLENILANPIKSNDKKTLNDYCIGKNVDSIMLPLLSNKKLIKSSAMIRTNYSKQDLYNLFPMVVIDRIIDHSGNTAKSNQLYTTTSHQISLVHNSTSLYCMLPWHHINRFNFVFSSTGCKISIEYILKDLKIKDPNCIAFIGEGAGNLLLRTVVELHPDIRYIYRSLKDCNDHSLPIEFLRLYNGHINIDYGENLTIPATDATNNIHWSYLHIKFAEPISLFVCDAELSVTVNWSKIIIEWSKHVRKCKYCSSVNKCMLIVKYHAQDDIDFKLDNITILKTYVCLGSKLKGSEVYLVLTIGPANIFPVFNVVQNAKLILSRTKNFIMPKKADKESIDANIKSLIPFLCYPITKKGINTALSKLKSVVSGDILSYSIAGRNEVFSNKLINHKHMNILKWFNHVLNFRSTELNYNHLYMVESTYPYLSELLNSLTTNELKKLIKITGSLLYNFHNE
Sequence of recombinant RSV complex (P03421 whole entry, further chain): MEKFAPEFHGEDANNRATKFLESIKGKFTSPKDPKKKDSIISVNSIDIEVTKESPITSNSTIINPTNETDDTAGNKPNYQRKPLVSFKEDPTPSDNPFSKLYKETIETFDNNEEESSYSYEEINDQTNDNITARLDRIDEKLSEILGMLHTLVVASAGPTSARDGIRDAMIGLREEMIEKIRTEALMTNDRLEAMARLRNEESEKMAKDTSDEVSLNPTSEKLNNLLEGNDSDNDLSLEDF

Compound | IC50 (recombinant RSV complex) [nM] | CC50 at 5 days [1, 3] [nM] | EC50 [2, 4] [nM] | EC50 (RSV replicon) [nM] | EC50 ([2]; 120 h, read-out: 50% effective concentration (EC50), HEp-2 cells infected with RSV long strain, 5 days, CCK-8 readout) [nM] | CC50 at 5 days ([1]; no virus, 5 days, CCK-8 readout, Tables C and D list compounds by CC50 band) [nM]
COc1cc(C(=O)NC[C@@](O)(c2cc(C(C)(C)N)cc(-c3ccc(F)c(Cl)c3)n2)C(F)(F)F)ccc1OC[C@@H](C)O [Compound 551] | < 1000 | 10000 to 100000 | < 1000 | < 1000 |  | 
COc1cc(C(=O)NCC(O)(CNC(C)=O)c2ccc(OC)c(-c3ccc(F)c(Cl)c3)n2)ccc1OCCO (stereo not shown) [Compound 195] | < 1000 | > 100000 | < 1000 | < 1000 |  | 
COc1cc(C(=O)NCC(C)(O)c2cc3c(c(-c4c[nH]c5c(F)cccc45)n2)OCC3(C)C)ccc1OCCF (stereo not shown) [Compound 228] | < 1000 | > 100000 | < 1000 | < 1000 |  | 
COc1cc(C(=O)NCC(O)(c2cc3c(c(-c4ccc(F)c(Cl)c4)n2)OCC3(C)N)C(F)(F)F)ccc1OCCO (stereo not shown) [Compound 638] | < 1000 | 10000 to 100000 | < 1000 | < 1000 |  | 
C#CC(O)(CNC(=O)c1ccc(OCCF)c(OC)c1)c1ccc(OC)c(-c2ccc(F)c(Cl)c2)n1 (stereo not shown) [Compound 127] | < 1000 | 10000 to 100000 | < 1000 | 1000 to 50000 |  | 
COc1cc(C(=O)NCC(O)(c2ccc(OC)c(-c3ccc(F)c(Cl)c3)n2)C(F)F)ccc1OCCO (stereo not shown) [Compound 436] | < 1000 | 10000 to 100000 | < 1000 | < 1000 |  | 
COc1cc(C(=O)NCC(O)(c2cc(C(C)(C)N)cc(-c3ccc(F)cc3)n2)C(F)(F)F)ccc1OC1CC1 (stereo not shown) [Compound 318] | < 1000 | 10000 to 100000 | < 1000 | < 1000 |  | 
COc1cc(C(=O)NCC(O)(c2cc3c(c(-c4ccc(C(F)(F)F)cc4)n2)OCC3(C)N)C(F)(F)F)ccc1OCCO (stereo not shown) [Compound 645] | < 1000 | 10000 to 100000 | < 1000 | < 1000 |  | 
COc1cc(C(=O)NCC(O)(c2cc(C(C)(C)NC3COC3)cc(-c3ccc(F)c(Cl)c3)n2)C(F)(F)F)ccc1OC1CC1 (stereo not shown) [Compound 577] | < 1000 | 10000 to 100000 | < 1000 | < 1000 |  | 
CCC(O)(CNC(=O)c1ccc(OCCF)c(OC)c1)c1ccc(OC)c(-c2ccc(F)c(Cl)c2)n1 (single isomer, unassigned) [Compound 122a] | < 1000 | 10000 to 100000 | < 1000 | < 1000 |  | 
COc1cc(C(=O)NC[C@@](O)(c2cc(C(C)(C)N)cc(-c3ccc(F)cc3)n2)C(F)(F)F)ccc1OC[C@@H](C)O [Compound 545] | < 1000 | 10000 to 100000 | < 1000 | < 1000 |  | 
COc1cc(C(=O)NCC(O)(c2cc(C(C)(C)NCCF)cc(-c3ccc(F)c(Cl)c3)n2)C(F)(F)F)ccc1OC1CC1 (stereo not shown) [Compound 356] | < 1000 | 10000 to 100000 | < 1000 | < 1000 |  | 
COc1cc(C(=O)NCC(O)(c2ccc(CN)c(-c3ccc(F)cc3)n2)C(F)(F)F)ccc1OC1CC1 (stereo not shown) [Compound 514] | < 1000 | 10000 to 100000 | < 1000 | < 1000 |  | 
COc1cc(C(=O)NCC(O)(c2ccc(OC)c(-c3ccc(F)c(Cl)c3)n2)C(F)(F)F)ccc1OCCO (stereo not shown) [Compound 334] | < 1000 | 10000 to 100000 | < 1000 | < 1000 |  | 
CCc1ccc(C(C)(O)CNC(=O)c2ccc(OC)c(OC)c2)nc1-c1csc2c(F)cccc12 (stereo not shown) [Compound 115] | < 1000 | 10000 to 100000 | < 1000 | < 1000 |  | 
COc1ccc(C(=O)NCC(=O)c2nc(-c3csc4c(F)cccc34)c3ccccn23)cc1OC [Compound 130] | < 1000 | 10000 to 100000 |  | < 1000 | < 1000 | 
COc1cc(C(=O)NCC(O)(c2cc(C(C)(C)NC(C)=O)cc(-c3ccc(F)c(Cl)c3)n2)C(F)(F)F)ccc1OCC(N)=O (stereo not shown) [Compound 612] | < 1000 | > 100000 | < 1000 | < 1000 |  | 
COc1cc(C(=O)NCC(O)(c2cc(C(C)N)cc(-c3ccc(F)c(Cl)c3)n2)C(F)(F)F)ccc1OC1CC1 (stereo not shown) [Compound 459] | < 1000 |  | < 1000 | < 1000 |  | 10000 to 100000
COc1cc(C(=O)NCC(O)(c2cc(CNC(C)=O)cc(-c3ccc(F)c(Cl)c3)n2)C(F)(F)F)ccc1OC1CC1 (stereo not shown) [Compound 328] | < 1000 | 10000 to 100000 | < 1000 | < 1000 |  | 
